Key:
Aurora B kinase = Aurora B kinase (Homo sapiens (Human), UniProt Q96GD4); assay: Aurora B kinase 33P-ATP filter assay (Reaction Biology Corp.); type: biochemical
Description: (§1) The ability of the compounds of the invention to inhibit FLT3 kinase and Aurora A and Aurora B kinases was determined using the assays described below.
(§2) Kinase assays were performed at Reaction Biology Corp., Malvern, Pa., USA, using the following general procedure:
(§3) 1) Prepare indicated substrate in freshly prepared Base Reaction Buffer (20 mM Hepes pH 7.5, 10 mM MgCl2, 1 mM EGTA, 0.02% Brij35, 0.02 mg/ml BSA, 0.1 mM Na3VO4, 2 mM DTT, 1% DMSO).
(§4) 2) Deliver cofactors (1.5 mM CaCl2, 16 ug/mL Calmodulin, 2 mM MnCl2) to the substrate solution above.
(§5) 3) Deliver indicated kinase into the substrate solution and gently mix
(§6) 4) Deliver varying concentrations of test compound in DMSO into the kinase reaction mixture.
(§7) 5) Deliver ^33P-ATP (specific activity 0.01 µCi/µL final) into the reaction mixture to initiate the reaction.
(§8) 6) Incubate kinase reaction for 120 min at room temperature.
(§9) 7) Reactions are spotted onto P81 ion exchange filter paper (Whatman #3698-915)
(§10) 8) Unbound phosphate is removed by washing filters extensively in 0.75% phosphoric acid.
(§11) 9) ^33P signal was determined using Typhoon phosphorimagers (GE Healthcare).
(§12) Substrates: Kemptide=[H-LRRASLG] Abltide=[[…]]

Aurora A kinase = Aurora A kinase (Homo sapiens (Human), UniProt O14965); assay: Aurora A kinase 33P-ATP filter assay (Reaction Biology Corp.); type: biochemical
Description: as §1, §2, §3, §4, §5, §6, §7, §8, §9, §10, §11, §12

[1] = Caco-2 permeability assay; type: in vitro ADME; conditions: human; for Papp A→B: A2B, read-out: Caco2 A2B Papp; for Papp B→A: B2A, read-out: Caco2 B2A Papp; for efflux ratio: B2A:A2B, read-out: Caco2 Efflux ratio
Description: The ability of a compound to be taken up and retained by a cell can be measured by carrying out permeability studies using Caco-2 cells.
Compounds of the present invention were therefore tested in a standard Caco-2 assay and the rate of flow of the compounds into and out of the cells was determined.
In the table, the column headed “Caco-2 A2B” indicates the rate at which compound flows into the cells and the column Caco-2 B2A indicates the rate at which compound flows out of the cells. The “Efflux Ratio” is the ratio of Caco-2 B2A:Caco-2 A2B.

FLT3 kinase = FLT3 kinase (Homo sapiens (Human), UniProt P36888); assay: FLT3 kinase 33P-ATP filter assay (Reaction Biology Corp.); type: biochemical
Description: as §1, §2, §3, §4, §5, §6, §7, §8, §9, §10, §11, §12

HCT-116 [2] = assay: Polyploid phenotype in HCT-116 cells; type: cell-based, human
Description: (§13) The anti-proliferative activities of compounds of the invention are determined by measuring the ability of the compounds to inhibit the growth of the colorectal cancer derived cell-line HCT-116. Inhibition of cell growth is measured using the Alamar Blue assay (Nociari et al., Journal of Immunological Methods (1998) 213, 157-167). The method is based on the ability of viable cells to reduce resazurin to its fluorescent product resorufin. For each proliferation assay cells are plated onto 96 well plates and allowed to recover for 16 hours prior to the addition of inhibitor compounds for a further 96 hours. At the end of the incubation period 10% (v/v) Alamar Blue is added and incubated for a further 6 hours prior to determination of fluorescent product at Excitation 535 nm and Emission 590 nm. All cell lines are obtained from ECACC (European Collection of cell Cultures).
(§14) The activities of the compounds of the invention against the human colorectal cancer cell line HCT-116 are shown the in the table below. The column headed HCT-116 96 Hrs refers to the concentration of compound required to reduce the proliferation of HCT-116 cells by 50% following a 96 h period of exposure. The column headed [Polyploidy] refers to the lowest concentration of compound required to produce a distinct polyploid phenotype, believed to be due to Aurora B inhibition.

HCT-116 [3] = assay: Anti-proliferative activity, Alamar Blue assay; type: cell-based; conditions: Homo sapiens, 96 h exposure, read-out: HCT116 96 Hrs IC50
Description: as §13, §14

[4] = test system: SW620, HCT-116, Colo205, A549, Calu-6 or HL-60 tumour xenografts; conditions: HL-60 xenograft; cited from earlier work
[5] = test system: treatment-refractory primary Acute Myelogenous Leukemia (AML) cells; conditions: cells from patients; cited from earlier work
MV4-11 xenograft tumors = assay: MV4-11 xenograft study in nude mice; type: in vivo, Balb/c nude mouse; conditions: 100 mg/kg IP once daily, 4 cycles
Text: The in vivo antitumour activity of compounds of the invention was investigated by examining the effect of the compounds of Examples 2 and 7 on tumour growth in a nude mouse xenograft model of the MV4-11 cancer cell line.
MV4-11 cell line (ATCC, USA); RPMI 1640 medium (Invitrogen, USA); FBS (Invitrogen, Australia); Balb/c nude mouse (Slac Laboratory Animal Co., Ltd., Shanghai, China): female, 18-22 g; HP-6-CD (Sigma, USA).
A total of 52 female nude mice were used. The mice were allowed 3 days of acclimatization period before starting the experiment. Mice were implanted subcutaneously (s.c.) with 200 μl of 1×10^7MV4-11 tumour cells in 50% Matrigel in the right flank at the beginning of the study. When tumours reached an average volume of 100-150 mm^3, 32 mice out of the 52 were selected based on tumour volume, and randomly assigned to 4 groups prior to dosing. Each treatment group consisted of 8 tumour-bearing animals (n=8/group).
A comparison group of mice were treated with cytarabine once daily for 5 days on, 2 days off, for 4 cycles.
Mice were weighed at each dosing and the tumour sizes recorded twice each week. Mice were observed closely for any overt signs of adverse, treatment-related side effects and these were recorded if and when they were observed.
The tumour size was measured twice weekly in two dimensions using calipers, and the volume was expressed in mm^3 using the formula: V=0.5 a×b^2 where a and b were the long and short diameters of the tumour, respectively.
Mice were euthanized by CO2 exposure after 4-cycle dose. The tumour volume, weight of dissected tumours, and the mouse body weight were measured and recorded. The tumour inhibitory rate (IR) was calculated by the formula IR=(WV−WT)/WV×100%.
The differences in tumour size between the groups were analyzed for significance using the unpaired two-tailed Student's t-test. P<0.05 was considered to be statistically significant.

Chain of Aurora A kinase (O14965 whole entry): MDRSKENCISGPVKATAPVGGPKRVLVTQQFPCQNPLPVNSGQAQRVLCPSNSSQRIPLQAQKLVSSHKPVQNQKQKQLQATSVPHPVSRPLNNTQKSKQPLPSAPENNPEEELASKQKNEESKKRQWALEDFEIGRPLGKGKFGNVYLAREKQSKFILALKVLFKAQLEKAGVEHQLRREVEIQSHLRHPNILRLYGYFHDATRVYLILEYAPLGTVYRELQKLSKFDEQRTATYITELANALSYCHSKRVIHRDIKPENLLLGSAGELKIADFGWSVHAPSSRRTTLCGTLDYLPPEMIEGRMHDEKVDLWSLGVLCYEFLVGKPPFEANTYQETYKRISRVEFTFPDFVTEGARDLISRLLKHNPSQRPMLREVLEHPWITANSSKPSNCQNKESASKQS
Chain of Aurora B kinase (Q96GD4 whole entry): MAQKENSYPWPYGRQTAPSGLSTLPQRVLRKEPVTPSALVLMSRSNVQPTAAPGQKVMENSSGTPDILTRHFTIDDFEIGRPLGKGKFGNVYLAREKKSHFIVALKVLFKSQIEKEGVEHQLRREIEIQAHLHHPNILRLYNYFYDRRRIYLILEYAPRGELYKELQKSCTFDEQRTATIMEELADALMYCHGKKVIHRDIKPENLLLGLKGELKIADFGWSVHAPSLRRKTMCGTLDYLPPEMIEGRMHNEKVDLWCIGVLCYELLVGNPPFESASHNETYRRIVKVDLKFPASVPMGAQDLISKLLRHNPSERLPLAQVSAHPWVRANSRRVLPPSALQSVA
Chain of FLT3 kinase (P36888 27-993): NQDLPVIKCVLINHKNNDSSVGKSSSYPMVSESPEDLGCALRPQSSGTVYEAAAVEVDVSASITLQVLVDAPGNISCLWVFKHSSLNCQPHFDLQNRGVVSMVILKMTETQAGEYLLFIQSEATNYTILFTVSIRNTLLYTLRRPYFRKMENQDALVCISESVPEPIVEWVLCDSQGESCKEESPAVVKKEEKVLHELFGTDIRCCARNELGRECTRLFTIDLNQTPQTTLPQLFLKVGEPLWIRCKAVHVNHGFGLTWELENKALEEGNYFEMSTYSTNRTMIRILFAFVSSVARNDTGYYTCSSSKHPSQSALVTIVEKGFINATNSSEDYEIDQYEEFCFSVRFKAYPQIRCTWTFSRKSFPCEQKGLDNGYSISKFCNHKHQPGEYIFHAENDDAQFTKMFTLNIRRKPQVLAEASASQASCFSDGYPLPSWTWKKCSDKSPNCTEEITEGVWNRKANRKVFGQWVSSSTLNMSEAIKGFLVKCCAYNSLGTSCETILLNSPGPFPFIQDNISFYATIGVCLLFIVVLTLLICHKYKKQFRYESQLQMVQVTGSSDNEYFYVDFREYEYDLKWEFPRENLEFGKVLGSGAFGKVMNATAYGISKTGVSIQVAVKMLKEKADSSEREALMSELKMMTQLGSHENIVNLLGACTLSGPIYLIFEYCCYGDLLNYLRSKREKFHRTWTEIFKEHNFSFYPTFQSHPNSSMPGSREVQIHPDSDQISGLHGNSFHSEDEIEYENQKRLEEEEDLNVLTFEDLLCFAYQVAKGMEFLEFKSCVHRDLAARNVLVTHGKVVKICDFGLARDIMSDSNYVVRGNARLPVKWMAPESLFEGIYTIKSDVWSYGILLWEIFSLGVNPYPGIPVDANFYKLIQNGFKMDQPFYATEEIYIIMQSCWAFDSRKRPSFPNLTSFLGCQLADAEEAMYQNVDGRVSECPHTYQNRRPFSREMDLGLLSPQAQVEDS

SMILES: CC1(C)CN(c2ccc(-c3oc(-c4ccc(C(F)(F)F)c5[nH]ccc45)nc3C(N)=O)cc2)CCN1 [Example 12, 2-(7-Trifluoromethyl-1H-Indol-4-yl)-5-[4-(3,3-dimethyl-piperazin-1-yl)-phenyl]-oxazole-4-carboxylic acid amide]
- IC50 (Aurora B kinase): 14 nM
- IC50 (Aurora A kinase): 16 nM
- Papp A→B [1]: 0.036 ×10⁻⁶ cm/s
- Papp B→A [1]: 1.21 ×10⁻⁶ cm/s
- efflux ratio [1]: 33.5
- IC50 (FLT3 kinase): 2.8 nM

SMILES: COc1ccc(-c2nc(C(N)=O)c(-c3ccc(N4CCNC(C)(C)C4)cc3)o2)c2cc[nH]c12 [Example 5, 2-(7-Methoxy-1H-Indol-4-yl)-5-[4-(3,3-dimethyl-piperazin-1-yl)-phenyl]-oxazole-4-carboxylic acid amide]
- IC50 (Aurora B kinase): 8.78 nM
- [Polyploidy] lowest concentration producing a distinct polyploid phenotype (HCT-116 [2]): 0.1 µM
- IC50 (Aurora A kinase): 20.5 nM
- IC50 (HCT-116 [3]): 87 nM
- Papp A→B [1]: 1.36 ×10⁻⁶ cm/s
- Papp B→A [1]: 11 ×10⁻⁶ cm/s
- IC50 (FLT3 kinase): 0.89 nM

SMILES: Cc1c[nH]c2cccc(-c3nc(C(N)=O)c(-c4ccc(N5CCNC(C)(C)C5)cc4)o3)c12 [Example 8, 2-(3-Methyl-1H-Indol-4-yl)-5-[4-(3,3-dimethyl-piperazin-1-yl)-phenyl]-oxazole-4-carboxylic acid amide]
- IC50 (Aurora B kinase): 14.2 nM
- IC50 (Aurora A kinase): 271 nM
- Papp A→B [1]: 2.07 ×10⁻⁶ cm/s
- Papp B→A [1]: 9.19 ×10⁻⁶ cm/s
- efflux ratio [1]: 4.45
- IC50 (FLT3 kinase): 0.55 nM

SMILES: CCN(CCCOc1ccc2c(Nc3cc(CC(=O)Nc4cccc(F)c4)n[nH]3)ncnc2c1)CCOP(=O)(O)O [AZD1152]
- complete tumour regression (animals) [4]: 8 of 11

SMILES: CCc1ccc(-c2nc(C(N)=O)c(-c3ccc(N4CCNC(C)(C)C4)cc3)o2)c2cc[nH]c12 [Example 10, 2-(7-Ethyl-1H-Indol-4-yl)-5-[4-(3,3-dimethyl-piperazin-1-yl)-phenyl]-oxazole-4-carboxylic acid amide]
- [Polyploidy] lowest concentration producing a distinct polyploid phenotype (HCT-116 [2]): 0.3 µM
- IC50 (HCT-116 [3]): 220 nM
- Papp A→B [1]: 0.37 ×10⁻⁶ cm/s
- Papp B→A [1]: 2.35 ×10⁻⁶ cm/s

SMILES: NC(=O)c1nc(-c2cccc3[nH]ccc23)oc1-c1ccc(N2CCNCC2)cc1 [Example M-12, 2-(1H-Indol-4-yl)-5-(4-piperazin-1-yl-phenyl)-oxazole-4-carboxylic acid amide, reference compound]
- IC50 (Aurora B kinase): 13 nM
- [Polyploidy] lowest concentration producing a distinct polyploid phenotype (HCT-116 [2]): 1.0 µM
- IC50 (Aurora A kinase): 75 nM
- IC50 (HCT-116 [3]): 680 nM
- Papp A→B [1]: 1.13 ×10⁻⁶ cm/s
- Papp B→A [1]: 58.3 ×10⁻⁶ cm/s
- efflux ratio [1]: 51.7
- IC50 (FLT3 kinase): 1.6 nM

SMILES: CCc1ccc2[nH]ccc2c1-c1nc(C(N)=O)c(-c2ccc(N3CCNC(C)(C)C3)cc2)o1 [Example 9, 2-(5-Ethyl-1H-Indol-4-yl)-5-[4-(3,3-dimethyl-piperazin-1-yl)-phenyl]-oxazole-4-carboxylic acid amide]
- Papp A→B [1]: 0.519 ×10⁻⁶ cm/s
- Papp B→A [1]: 3.59 ×10⁻⁶ cm/s
- efflux ratio [1]: 6.91

SMILES: CC1(C)CN(c2ccc(-c3oc(-c4ccc(Cl)c5[nH]ccc45)nc3C(N)=O)cc2)CCN1 [Example 4, 2-(7-Chloro-1H-Indol-4-yl)-5-[4-(3,3-dimethyl-piperazin-1-yl)-phenyl]-oxazole-4-carboxylic acid amide]
- IC50 (Aurora B kinase): 13.9 nM
- [Polyploidy] lowest concentration producing a distinct polyploid phenotype (HCT-116 [2]): 0.3 µM
- IC50 (Aurora A kinase): 34 nM
- IC50 (HCT-116 [3]): 260 nM
- Papp A→B [1]: 0.64 ×10⁻⁶ cm/s
- Papp B→A [1]: 2.76 ×10⁻⁶ cm/s
- efflux ratio [1]: 4.32
- IC50 (FLT3 kinase): 0.97 nM

SMILES: Cc1cc(Nc2cc(N3CCN(C)CC3)nc(Sc3ccc(NC(=O)C4CC4)cc3)n2)n[nH]1 [VX-680]
- killing of primary AML cells [5]: potently killed

SMILES: CC1(C)CN(c2ccc(-c3oc(-c4ccc(F)c5[nH]ccc45)nc3C(N)=O)cc2)CCN1 [Example 3, 2-(7-Fluoro-1H-Indol-4-yl)-5-[4-(3,3-dimethyl-piperazin-1-yl)-phenyl]-oxazole-4-carboxylic acid amide]
- IC50 (Aurora B kinase): 9.36 nM
- [Polyploidy] lowest concentration producing a distinct polyploid phenotype (HCT-116 [2]): 0.1 µM
- IC50 (Aurora A kinase): 19.4 nM
- IC50 (HCT-116 [3]): 120 nM
- Papp A→B [1]: 1.17 ×10⁻⁶ cm/s
- Papp B→A [1]: 7.76 ×10⁻⁶ cm/s
- efflux ratio [1]: 6.62
- IC50 (FLT3 kinase): 0.821 nM

SMILES: CC1(C)CN(c2ccc(-c3oc(-c4cccc5[nH]ccc45)nc3C(N)=O)cc2)CCN1 [Example 11, 2-(1H-Indol-4-yl)-5-[4-(3,3-dimethyl-piperazin-1-yl)-phenyl]-oxazole-4-carboxylic acid amide]
- IC50 (Aurora B kinase): 15.2 nM
- [Polyploidy] lowest concentration producing a distinct polyploid phenotype (HCT-116 [2]): 0.1 µM
- IC50 (Aurora A kinase): 46.2 nM
- IC50 (HCT-116 [3]): 170 nM
- Papp A→B [1]: 2.47 ×10⁻⁶ cm/s
- Papp B→A [1]: 12.6 ×10⁻⁶ cm/s

SMILES: Cc1cc(C)c2[nH]ccc2c1-c1nc(C(N)=O)c(-c2ccc(N3CCNC(C)(C)C3)cc2)o1 [Example 6, 2-(5,7-Dimethyl-1H-Indol-4-yl)-5-[4-(3,3-dimethyl-piperazin-1-yl)-phenyl]-oxazole-4-carboxylic acid amide]
- IC50 (Aurora B kinase): 19.6 nM
- [Polyploidy] lowest concentration producing a distinct polyploid phenotype (HCT-116 [2]): 0.1 µM
- IC50 (Aurora A kinase): 88.4 nM
- IC50 (HCT-116 [3]): 160 nM
- Papp A→B [1]: 0.514 ×10⁻⁶ cm/s
- Papp B→A [1]: 2.08 ×10⁻⁶ cm/s
- efflux ratio [1]: 4.04
- IC50 (FLT3 kinase): 1.37 nM

SMILES: Nc1ccn([C@@H]2O[C@H](CO)[C@@H](O)[C@@H]2O)c(=O)n1 [cytarabine, reference compound]
- effect on tumour growth (tumour volume) (MV4-11 xenograft tumors): slowed down but did not completely block the tumour growth
- tumour inhibitory rate (IR) (MV4-11 xenograft tumors; 5 days on, 2 days off): 66.72%

SMILES: CC1(C)CN(c2ccc(-c3oc(-c4c(F)ccc5[nH]ccc45)nc3C(N)=O)cc2)CCN1 [Example 1, 2-(5-Fluoro-1H-Indol-4-yl)-5-[4-(3,3-dimethyl-piperazin-1-yl)-phenyl]-oxazole-4-carboxylic acid amide]
- IC50 (Aurora B kinase): 24.3 nM
- [Polyploidy] lowest concentration producing a distinct polyploid phenotype (HCT-116 [2]): 0.3 µM
- IC50 (Aurora A kinase): 14.6 nM
- IC50 (HCT-116 [3]): 240 nM
- Papp A→B [1]: 0.707 ×10⁻⁶ cm/s
- Papp B→A [1]: 22.8 ×10⁻⁶ cm/s
- efflux ratio [1]: 32.2
- IC50 (FLT3 kinase): 1.92 nM

From patent US9133180B2, “Aurora and FLT3 kinases modulators” (SAREUM LIMITED, priority 2012, dated 2015)
